Test results published in US10562857B2 (AFASCI, Inc., priority 2015, dated 2020).
pIC50: −log10 of the molar value. “Also recorded” adds a separate entry of the source.

Experiments:
[1] = target: T1, Cav3.2 channel (Homo sapiens, UniProt O95180); test: Whole-cell patch clamp of T-type Cav3.2 channel expressed in HEK293 cells; assay type: cell-based; details: for pIC50: Table 1, tested at at least 4 concentrations, read-out: IC50; for inhibition at 1 µM: HEK293, Table 1 primary screening
T1 construct: expressed in transfected cells; host or cells: HEK-293, tetracycline inducible expression system (Invitrogen)
T1 sequence (O95180 whole entry): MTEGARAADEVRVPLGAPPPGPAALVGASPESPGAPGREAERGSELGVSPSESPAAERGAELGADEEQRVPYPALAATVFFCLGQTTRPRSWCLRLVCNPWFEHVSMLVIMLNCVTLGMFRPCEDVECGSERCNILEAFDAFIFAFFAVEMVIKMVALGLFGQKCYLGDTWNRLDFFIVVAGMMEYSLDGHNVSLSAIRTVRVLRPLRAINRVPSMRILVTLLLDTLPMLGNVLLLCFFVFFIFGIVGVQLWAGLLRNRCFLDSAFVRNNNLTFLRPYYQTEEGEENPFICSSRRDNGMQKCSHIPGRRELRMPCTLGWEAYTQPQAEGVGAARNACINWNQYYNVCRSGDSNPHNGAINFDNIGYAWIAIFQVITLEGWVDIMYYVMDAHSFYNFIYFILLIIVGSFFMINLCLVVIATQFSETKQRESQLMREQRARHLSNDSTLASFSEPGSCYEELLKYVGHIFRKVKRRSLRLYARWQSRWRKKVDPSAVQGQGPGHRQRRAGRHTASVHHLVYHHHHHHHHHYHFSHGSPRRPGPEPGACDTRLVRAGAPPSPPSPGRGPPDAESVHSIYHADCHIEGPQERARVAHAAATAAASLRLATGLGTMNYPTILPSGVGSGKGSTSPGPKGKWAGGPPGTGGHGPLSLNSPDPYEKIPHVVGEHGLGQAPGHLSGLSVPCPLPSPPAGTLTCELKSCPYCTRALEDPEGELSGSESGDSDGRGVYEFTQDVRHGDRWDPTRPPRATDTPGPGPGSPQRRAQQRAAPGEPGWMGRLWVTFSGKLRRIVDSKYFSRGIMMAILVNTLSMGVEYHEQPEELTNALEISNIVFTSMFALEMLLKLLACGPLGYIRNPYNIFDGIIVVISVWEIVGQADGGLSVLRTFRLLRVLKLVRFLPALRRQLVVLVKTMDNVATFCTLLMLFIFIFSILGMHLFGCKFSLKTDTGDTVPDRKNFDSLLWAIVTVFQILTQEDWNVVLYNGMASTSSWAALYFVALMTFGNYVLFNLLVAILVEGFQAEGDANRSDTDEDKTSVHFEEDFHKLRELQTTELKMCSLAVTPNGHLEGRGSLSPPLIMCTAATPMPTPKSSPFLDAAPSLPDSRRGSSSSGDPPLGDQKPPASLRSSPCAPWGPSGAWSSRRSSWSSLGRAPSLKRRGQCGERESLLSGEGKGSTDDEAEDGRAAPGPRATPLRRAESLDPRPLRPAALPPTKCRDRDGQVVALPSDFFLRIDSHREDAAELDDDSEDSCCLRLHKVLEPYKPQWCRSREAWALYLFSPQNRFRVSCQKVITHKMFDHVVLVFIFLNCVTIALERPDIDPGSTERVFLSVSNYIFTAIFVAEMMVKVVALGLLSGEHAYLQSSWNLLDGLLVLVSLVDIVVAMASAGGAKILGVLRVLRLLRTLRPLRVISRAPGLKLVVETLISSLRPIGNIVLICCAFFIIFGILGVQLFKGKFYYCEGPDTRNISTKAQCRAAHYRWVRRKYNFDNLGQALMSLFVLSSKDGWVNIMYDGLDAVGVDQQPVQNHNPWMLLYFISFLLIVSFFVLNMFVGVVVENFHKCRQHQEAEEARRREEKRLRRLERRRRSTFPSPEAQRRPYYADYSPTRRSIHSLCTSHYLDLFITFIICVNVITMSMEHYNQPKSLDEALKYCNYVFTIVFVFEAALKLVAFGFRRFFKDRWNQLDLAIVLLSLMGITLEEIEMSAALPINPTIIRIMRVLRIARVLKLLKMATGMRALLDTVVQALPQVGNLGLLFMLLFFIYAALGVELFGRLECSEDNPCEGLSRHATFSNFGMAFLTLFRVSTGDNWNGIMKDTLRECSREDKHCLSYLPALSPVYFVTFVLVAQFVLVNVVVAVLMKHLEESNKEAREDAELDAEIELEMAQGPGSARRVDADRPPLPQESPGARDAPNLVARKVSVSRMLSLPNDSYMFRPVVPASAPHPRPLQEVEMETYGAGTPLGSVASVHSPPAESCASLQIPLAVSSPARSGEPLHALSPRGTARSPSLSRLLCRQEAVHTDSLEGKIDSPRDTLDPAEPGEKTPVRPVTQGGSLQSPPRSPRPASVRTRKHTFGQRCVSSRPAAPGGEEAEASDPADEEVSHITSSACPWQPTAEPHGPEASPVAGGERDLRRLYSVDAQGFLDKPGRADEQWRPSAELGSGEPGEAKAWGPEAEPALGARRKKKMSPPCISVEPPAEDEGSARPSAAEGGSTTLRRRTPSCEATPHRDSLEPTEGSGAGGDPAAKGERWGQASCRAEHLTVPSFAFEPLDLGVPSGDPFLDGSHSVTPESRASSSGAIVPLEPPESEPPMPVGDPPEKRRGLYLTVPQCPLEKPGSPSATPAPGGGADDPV

[2] = tested on: SNI mice; test: Spared nerve injury (SNI) mice, Hargreaves thermal test; assay type: in vivo, mouse; details: 30 mg/kg, 0.2 mL I.P.
Experimental: FIG. 1A. Examples of compounds that mitigate neuropathic pain induced by Spared Nerve Injury (SNI) in mice. The withdrawal latencies of the mice's left hindpaws (injured site) in response to thermal stimulation (Hargreaves test). Each SNI mouse received either EXAMPLE (EX)-11, -14, -38, -62, or 113, or gabapentin, as benchmark (each 30 mg/kg, 0.2 mL I.P.), or vehicle (0.2 mL I.P. 2% DMSO in 0.5% Hydroxyl Propyl Cellulose, HPC). […] 40 seconds were cut off in order to prevent tissue damage (n=8 per group).
(§1) T-channel specific inhibitors are not yet available for clinical treatment of neuropathic pain. The spared nerve injury (SNI) model, one of the reliable neuropathic pain models in mice and rats (Decosterd and Woolf, 2000), was used to assess the effects of the representative compounds.
(§2) Of the three branches of the sciatic nerve, the tibial and common peroneal nerves of the mice (C57BL/6, male, 25-30 g, Harlan) were cut and ligated, leaving the sural nerve intact. Pre-surgery baselines (100%) of the thermal and mechanical pain thresholds of the ipsilateral hind paws were measured using the Hargreaves thermal stimulator (Hargreaves et al., 1988) and von Frey hair monofilaments (up-down method, Chaplan et al., 1994), respectively. Mice underwent the SNI surgery on their left hind leg. Two weeks post-surgery, the thermal thresholds of each mouse were reassessed.
(§3) EXAMPLE-11, 14, 38, 62, or 113 (FIGS. 1A and B) and EXAMPLE-12, 16, 19, 39, or 44 (FIGS. 2A and B) were administered at 30 mg/kg (0.2 mL I.P.) in a vehicle (pure DMSO to dissolve the powder first and then add 0.5% Hydroxyl Propyl Cellulose, HPC, to contain 2% DMSO in injection solution). All drug solutions used the same vehicle, unless specified otherwise.

[3] = tested on: SNI mice; test: Spared nerve injury (SNI) mice, von Frey monofilament test; assay type: in vivo, mouse; details: 30 mg/kg, 0.2 mL I.P.
Text: FIG. 1B. Mechanical pain threshold assessment (using von Frey monofilament test) of the same cohort of SNI mice's left hindpaws.
as §1, §2, §3

[4] = tested on: CFA mice; test: Complete Freund's Adjuvant (CFA)-induced inflammatory pain in mice, von Frey test; assay type: in vivo, mouse
Experimental: FIG. 7. Effects of EXAMPLE-96, 107 or 115 (each 30 mg/kg, I.P.) or gabapentin (as a benchmark, 100 mg/kg, I.P) on Complete Freund's Adjuvant (CFA)-induced inflammation in male, mice (C57BL/6, ˜2 months old; n=8 mice per group). Mechanical pain threshold assessment of CFA mice's left hindpaws were measured using von Frey monofilament test at 0.5, 1, 2, 4, and 6 hours after treatment.
Because knockout or antisense knockdown of the Cav3.2 isoform produces analgesic effects in neuropathic pain as well as in inflammatory pain in mice (Choi et al., 2007), we used the Complete Freund adjuvant (CFA)-inflammatory pain in mice to investigate the drug effects. EXAMPLE-96, -115, and -107 (each at 30 mg/kg, I.P.) and a reference gabapentin (100 mg/kg, I.P.) was individually administered to mice that had CFA-induced inflammation on their left hindpaws.

SMILES	pIC50 [1]	left hindpaw withdrawal latency to thermal stimulation (hyperalgesia) [2]	mechanical pain threshold of left hindpaw (allodynia) [3]	inhibition at 1 µM [1]	mechanical pain threshold, CFA-induced inflammation ([4]; 30 mg/kg I.P.)	mechanical pain threshold, CFA-induced inflammation ([4]; 100 mg/kg I.P.)
O=C(NC1CC12CCN(CC(c1ccccc1)c1ccccc1)CC2)c1cc(Cl)cc(Cl)c1 (centres unmarked) [Example 39, 3,5-Dichloro-N-(6-(2,2-diphenylethyl)-6-azaspiro[2.5]octan-1-yl)benzamide]	7.22	produced analgesic effects; also recorded: reduced hyperalgesia	produced analgesic effects; also recorded: reduced allodynia			
O=C(NC1CCC12CCN(CCc1ccccc1)CC2)c1ccccc1 (centres unmarked) [Example 62]		produced analgesic effects; also recorded: reduced hyperalgesia	produced analgesic effects; also recorded: reduced allodynia	68%		
CC(C)(C)NC(=O)CN1CCC2(CC[C@H]2NC(=O)c2cc(Cl)cc(Cl)c2)CC1 [Example 113, (R)—N-(7-(2-(tert-Butylamino)-2-oxoethyl)-7-azaspiro[3.5]nonan-1-yl)-3,5-dichlorobenzamide]	6.19	produced analgesic effects; also recorded: reduced hyperalgesia	produced analgesic effects; also recorded: reduced allodynia			
CC(C)(C)NC(=O)CN1CCC2(CC1)CC2NC(=O)c1cc(Cl)cc(Cl)c1 (centres unmarked) [Example 14, N-(6-(2-(tert-Butylamino)-2-oxoethyl)-6-azaspiro[2.5]octan-1-yl)-3,5-dichlorobenzamide]	7.52	produced analgesic effects; also recorded: reduced hyperalgesia	produced analgesic effects; also recorded: reduced allodynia			
CC(C)(C)NC(=O)CN1CCC2(CC1)CC2NC(=O)c1cc(C(F)(F)F)cc(C(F)(F)F)c1 (centres unmarked) [Example 16, N-(6-(2-(tert-Butylamino)-2-oxoethyl)-6-azaspiro[2.5]octan-1-yl)-3,5-bis(trifluoromethyl)benzamide]	6.92	produced analgesic effects; also recorded: reduced hyperalgesia	produced analgesic effects; also recorded: reduced allodynia			
CC(C)(C)OCCN1CCC2(CC1)CC2NC(=O)c1cc(Cl)cc(Cl)c1 (centres unmarked) [Example 38, N-(6-(2-(tert-Butoxy)ethyl)-6-azaspiro[2.5]octan-1-yl)-3,5-dichlorobenzamide]	7.40	produced analgesic effects; also recorded: reduced hyperalgesia	produced analgesic effects; also recorded: reduced allodynia			
CC(C)CN1CCC2(CC1)CC2NC(=O)c1cc(Cl)cc(Cl)c1 (centres unmarked) [Example 11, 3,5-Dichloro-N-(6-isobutyl-6-azaspiro[2.5]octan-1-yl)benzamide]	6.38	produced analgesic effects; also recorded: reduced hyperalgesia	produced analgesic effects; also recorded: reduced allodynia			
CC(C)(C)CCN1CCC2(CC1)CC2NC(=O)c1cc(Cl)cc(Cl)c1 (centres unmarked) [Example 12, 3,5-Dichloro-N-(6-(3,3-dimethylbutyl)-6-azaspiro[2.5]octan-1-yl)benzamide]	7.30	produced analgesic effects; also recorded: reduced hyperalgesia	produced analgesic effects; also recorded: reduced allodynia			
CC(C)(C)NC(=O)CN1CCC(CNC(=O)c2ccccc2)CC1 [Example 96, N-((1-(2-(tert-Butylamino)-2-oxoethyl)piperidin-4-yl)methyl)benzamide]				40%	showed an analgesic effect in mechanical pain	
CC(C)(C)CCN1CCC2(CC1)CC2NC(=O)c1cc(C(F)(F)F)cc(C(F)(F)F)c1 (centres unmarked) [Example 19, N-(6-(3,3-Dimethylbutyl)-6-azaspiro[2.5]octan-1-yl)-3,5-bis(trifluoromethyl)benzamide]	7.52	produced analgesic effects; also recorded: reduced hyperalgesia	produced analgesic effects; also recorded: reduced allodynia			
NCC1(CC(=O)O)CCCCC1 [gabapentin, reference compound]		reduced hyperalgesia	reduced allodynia			showed an analgesic effect in mechanical pain
COc1ccc(CCN2CCC3(CC2)CC3NC(=O)c2cc(Cl)cc(Cl)c2)cc1 (centres unmarked) [Example 44, 3,5-Dichloro-N-(6-(4-methoxyphenethyl)-6-azaspiro[2.5]octan-1-yl)benzamide]	7.00	produced analgesic effects; also recorded: reduced hyperalgesia	produced analgesic effects; also recorded: reduced allodynia			
O=C(NC1CC12CCN(CCc1ccccc1)CC2)c1ccc(Cl)c(Cl)c1 (centres unmarked) [Example 8, 3,4-Dichloro-N-(6-phenethyl-6-azaspiro[2.5]octan-1-yl)benzamide]	6.92					
CC(C)(C)NC(=O)CN1CCC2(CC1)CC2CNc1cc(Cl)cc(Cl)c1 (centres unmarked) [Example 93]	7.00					
COc1cc(OC)cc(C(=O)NC2CC23CCN(CCC(C)(C)C)CC3)c1 (centres unmarked) [Example 33, N-(6-(3,3-Dimethylbutyl)-6-azaspiro[2.5]octan-1-yl)-3,5-dimethoxybenzamide]				63%		
O=C(Nc1nnc(-c2ccccc2F)o1)c1cnccn1 [Example 127, N-(5-(2-Fluorophenyl)-1,3,4-oxadiazol-2-yl)pyrazine-2-carboxamide]				8.5%		
CC(C)(C)CCN1CCC2(CC1)CC2NC(=O)c1ccc(Cl)c(Cl)c1 (centres unmarked) [Example 7, 3,4-Dichloro-N-(6-(3,3-dimethylbutyl)-6-azaspiro[2.5]octan-1-yl)benzamide]	6.92					
O=C(CN1CCC(CO)(CNC(=O)c2ccccc2F)CC1)Nc1ccccc1 [Example 110, 2-fluoro-N-((4-(hydroxymethyl)-1-(2-oxo-2-(phenylamino)ethyl)piperidin-4-yl)methyl)benzamide]				44%		
